Experimental data from patent US11693006B2, “Blood profiling with protease inhibitors” (Sangui Bio Pty. Ltd, priority 2016, dated 2023).
Numbered stars: 1 amine (or outer) side, 2 acyl side, 3 side chain; on linkers, the order of the positions; unused ones are H or OH. Square brackets hold non-standard residues; d marks the D form. Peptide text beside a SMILES is read from it. * marks the point of attachment. ξ: configuration not given here. Sta = CC(C)C[C@H](N)[C@@H](O)CC(=O)O; Isovaleryl = CC(C)CC(=O)*; ξR = N=C(N)NCCCC(N)C(=O)O; ξF = NC(Cc1ccccc1)C(=O)O; CO = O=C([*:1])[*:2]

What was measured:
Format in all cases: cell-based, human
[1] = tested on: red blood cells from healthy individuals; assay: Cytokine release from red blood cells of healthy individuals incubated with protease inhibitors (27-plex and 21-plex Bio-Plex); conditions: for effect on cytokine release from healthy red blood cells individually: individual inhibitors at Table 5 concentrations
Procedure: Blood samples from healthy volunteers were used to evaluate the effect of specific protease inhibitors on proteins from red blood cells. Whole blood was collected from healthy volunteers by venepuncture (n≥3) directly into EDTA vacutainers (k2EDTA vacutainers, BD Biosciences). The fractions of blood were collected and processed at room temperature within 4 hours of collection. For multiplex analysis (BioPlex analysis) the samples were stored at −80° C.
The red blood cells were isolated using dextran sedimentation as follows. Whole blood was centrifuged (1500 g, 10 minutes) and the upper plasma layer was discarded. The remaining cell pellet was resuspended in an equal volume of sodium chloride (0.15 M). Dextran (6% w/v in 0.15 M sodium chloride) was then added to this cellular suspension at a 1:4 ratio (dextran:cell suspension). The solution was left at room temperature for 30 minutes for red blood cell sedimentation to the bottom of the tube. The upper white blood cell rich layer was then discarded and the lower red blood cell fraction isolated. The red blood cell fraction was washed once in phosphate buffered saline (PBS, 500 g, 5 minutes) and the remaining red blood cell pellet was counted (Coulter Act Diff, Beckman Coulter). The red blood cells were then diluted to 400 million cells/mL in PBS and were incubated at 37° C. and 5% CO2 for 24 hours. Some samples were also incubated with the protease inhibitors indicated in Table 5 during the PBS incubation.
(§1) After incubation, the resulting conditioned PBS was isolated by centrifugation (500 g, 5 minutes) and then stored at −80° C. The conditioned PBS samples were then analysed on the multiplex cytokine assays. Two multiplex assays were utilised. The first was a 27-plex human cytokine panel that assays for FGF basic, Eotaxin, G-CSF, GM-CSF, IFN-γ, IL-1β, IL-1ra, IL-2, IL-4, IL-5, IL-6, IL-7, IL-8, IL-9, IL-10, IL-12(p70), IL-13, IL-15, IL-17, IP-10, MCP-1, MIP-1α, MIP-1β, PDGF-BB, RANTES, TNF-α, and VEGF, and the second was a 21-plex human cytokine panel that assays for IL-1α, IL-2Ra, IL-3, IL-12, IL-16, IL-18, CTACK, GRO-α, HGF, IFN-α2, LIF, MCP-3, M-CSF, MIF, MIG, β-NGF, SCF, SCGF-β, SDF-1α, TNF-β, TRAIL (Bio-Plex Pro 27-plex and 21-plex, Bio-Rad). The assays were performed according to manufacturer's instructions using an automated magnetic wash station (BioPlex Pro II, Bio-Rad) for the washing steps. The assays were run on the Luminex® 200™ system (Bio-Rad) and fluorescent values were collected. The calibration curve for each cytokine was analysed with 5 parametric logistic curve regression using BioPlex manager software (ver. 5.0, Bio-Rad, USA).
The fold change was determined for proteins in red blood cell-conditioned PBS at 400 million cells/mL following incubation at 37° C. for 24 hours with protease inhibitor cocktail or individual protease inhibitors from healthy participants. […] Significant differences (p<0.05) were determined using Student T-tests.
To determine the effect of a combination of protease inhibitors on the release of proteins from red blood cells, a protein profile was obtained from healthy red blood cells incubated with protease inhibitor cocktails. […] Healthy red blood cells were incubated with A8127s and the cOmplete protease inhibitor cocktail (Roche).

[2] = tested on: red blood cells from individuals having colorectal cancer; assay: Cytokine release from red blood cells of individuals having colorectal cancer incubated with protease inhibitors (27-plex); conditions: colorectal cancer red blood cells vs no protease inhibitors
Procedure: Whole blood was collected from volunteers with by venepuncture directly into EDTA vacutainers (k2EDTA vacutainers, BD Biosciences). The fractions of blood were collected and processed at room temperature within 4 hours of collection. For multiplex analysis (BioPlex analysis) the samples were stored at −80° C. prior to analysis. The red blood cells were isolated using dextran sedimentation as follows. Whole blood was centrifuged (1500 g, 10 minutes) and the upper plasma layer was discarded. The remaining cell pellet was resuspended in an equal volume of sodium chloride (0.15 M). Dextran (6% w/v in 0.15 M sodium chloride) was then added to this cellular suspension at a 1:4 ratio (dextran:cell suspension). The solution was left at room temperature for 30 minutes for red blood cell sedimentation to the bottom of the tube. The upper white blood cell rich layer was discarded and the lower red blood cell fraction was isolated. The red blood cell fraction was washed once in phosphate buffered saline (PBS, 500 g, 5 minutes) and the remaining red blood cell pellet was counted (Coulter Act Diff, Beckman Coulter). The red blood cells were then diluted to 400 million cells/mL in PBS and incubated at 37° C. and 5% CO2 for 24 hours. Some samples were also incubated with the individual protease inhibitors in Table 5, a commercial protease inhibitor cocktail (cOmplete, Roche), or the A8127s protease inhibitor cocktail during the PBS incubation. The A8127s protease inhibitor cocktail comprised antipain-dihydrochloride (50 μg/mL); bestatin (40 μg/mL); E-64 (10 μg/mL); leupeptin (5 μg/mL); pepstatin (0.7 μg/mL); phosphoramidon (330 μg/mL); Pefabloc SC (1 mg/mL); EDTA-Na2 (0.5 mg/mL); and aprotinin (2 μg/mL).
as §1, with “minutes). The samples were” for “minutes) and then”, “on” for “on the multiplex cytokine assays. Two multiplex assays were utilised. The first was”, “VEGF” for “VEGF, and the second was a 21-plex human cytokine panel that assays for IL-1α, IL-2Ra, IL-3, IL-12, IL-16, IL-18, CTACK, GRO-α, HGF, IFN-α2, LIF, MCP-3, M-CSF, MIF, MIG, β-NGF, SCF, SCGF-β, SDF-1α, TNF-β, TRAIL”, “27-plex,” for “27-plex and 21-plex,”, “assay was” for “assays were”
Significant differences (p<0.05) were determined using Student T-tests. […]

red blood cells = assay: Protein profile in red blood cell lysates using cationic salt (21-plex); conditions: PBS containing 100 mM LiCl vs PBS
Procedure: Red blood cells were isolated using dextran sedimentation as follows. Whole blood was centrifuged (1500 g, 10 minutes) and the upper plasma layer was discarded. The remaining cell pellet was resuspended in an equal volume of sodium chloride (0.15 M). Dextran (6% w/v in 0.15 M sodium chloride) was then added to this cellular suspension at a 1:4 ratio (dextran:cell suspension). This solution was left at room temperature for 30 minutes for red blood cell sedimentation to the bottom of the tube. After this time the upper white blood cell rich layer and the lower red blood cell fraction were separated and the white blood cells discarded. The lower red blood cell fraction was washed twice in phosphate buffered saline (PBS, 500 g, 5 minutes). The supernatant was discarded, and the red blood cell pellet resuspended in either PBS or PBS containing 100 mM LiCl.
The red blood cells were subjected to 3 freeze-thaw cycles to ensure complete cellular lysis. […] The red blood cell lysates were analysed on a 21-plex human cytokine panel that assays for IL-1α, IL-2Ra, IL-3, IL-12, IL-16, IL-18, CTACK, GRO-α, HGF, IFN-α2, LIF, MCP-3, M-CSF, MIF, MIG, β-NGF, SCF, SCGF-β, SDF-1α, TNF-β, TRAIL (Bio-Plex Pro 27-plex and 21-plex, Bio-Rad). […] The calibration curve for each cytokine was analysed with 5 parametric logistic curve regression using BioPlex manager software (ver. 5.0, Bio-Rad, USA).

[3] = healthy red blood cells, in words

Molecule	effect on cytokine release from healthy red blood cells individually [1]	further results
CC(C)[C@H](NC(=O)[C@H](CCCN=C(N)N)NC(=O)NC(Cc1ccccc1)C(=O)O)C(=O)NC(C=O)CCCN=C(N)N.Cl.Cl (stereo partly drawn) [Sample ID 3, Antipain-dihydrochloride] ({ξF-CO}-Arg-Val-[ξR]-aldehyde)	significant effect	concentration of IL-1β, IL-8, TNF-α, MIP-1α, G-CSF and IL-6 [2]: decreasing; concentration of released IFN-γ, IL-12(p70), IL-15, IL-17, IL-13, IL-7, IP-10, PDGF-bb and IL-2 [2]: increased
CC(C)C[C@H](NC(=O)[C@@H](O)[C@H](N)Cc1ccccc1)C(=O)O [Sample ID 4, Bestatin]	significant effect	concentration of HGF following red blood cell incubation [1, 3]: dramatically increased; concentration of released IFN-a2, IL-18, MIF, TRAIL, HGF, and IL12-p40 [1, 3]: alters
CC(C)C[C@H](NC(=O)[C@H]1O[C@@H]1C(=O)O)C(=O)NCCCCN=C(N)N [Sample ID 5, E-64]	significant effect	–
CC(=O)N[C@@H](CC(C)C)C(=O)N[C@@H](CC(C)C)C(=O)N[C@H](C=O)CCCNC(=N)N [Sample ID 6, Leupeptin]	significant effect	–
CC(C)CC(=O)N[C@H](C(=O)N[C@H](C(=O)N[C@@H](CC(C)C)[C@@H](O)CC(=O)N[C@@H](C)C(=O)N[C@@H](CC(C)C)[C@@H](O)CC(=O)O)C(C)C)C(C)C [Sample ID 7, Pepstatin] (Isovaleryl-VV[Sta]A[Sta]-OH)	significant effect	concentration of HGF following red blood cell incubation [1, 3]: significantly decreased; effect on concentration of IFN-a2, MIF, and HGF [1, 3]: opposite effect of bestatin
CC(C)C[C@H](NP(=O)(O)O[C@@H]1O[C@@H](C)[C@H](O)[C@@H](O)[C@H]1O)C(=O)N[C@@H](Cc1c[nH]c2ccccc12)C(=O)O [Sample ID 8, Phosphoramidon]	significant effect	–
Cl.NCCc1ccc(S(=O)(=O)F)cc1 [Sample ID 9, Pefabloc SC]	significant effect	concentration of IL-1β, IL-8, IL-9, TNF-α, IL-1ra, MCP-1, MIP-1α, G-CSF and IL-6 [2]: decreasing; released concentration of IL-13 and IL-7 [2]: increased
O=C([O-])CN(CCN(CC(=O)[O-])CC(=O)O)CC(=O)O.[Na+].[Na+] [Sample ID 10, EDTA-Na2]	significant effect	–
[Cl-].[Li+] [lithium chloride]	–	level of several of the proteins in the assay (21-plex human cytokine panel) (red blood cells): increased and/or enhanced
Aprotinin [Sample ID 11]	significant effect	–
